Measurements: ChEMBL document CHEMBL4428135, “Varying Chirality Across Nicotinic Acetylcholine Receptor Subtypes: Selective Binding of Quinuclidine Triazole Compounds” (ACS Med Chem Lett, 2016)
The source made the active and inactive calls. The calls are words filed in the database; no cut-off is given here.

Columns and labels:
Homo sapiens [1] = organism: Homo sapiens; test: Selectivity index, reciprocal of ratio of Ki for human alpha3beta4 nAChR transfected in HEK293 cells to Ki for human alpha4beta2 nAChR transfected in HEK293 cells; assay type: cell-based
[2] = biological target: Serotonin 3 (5-HT3) receptor (Homo sapiens) (UniProt P46098+A5X5Y0+O95264+Q70Z44+Q8WXA8); test: Displacement of [3H]BRL-43694 from human recombinant 5-HT3 receptor expressed in CHO cells at 100 nM; assay type: cell-based
[3] = biological target: T1, Neuronal acetylcholine receptor; alpha4/beta2 (Homo sapiens, UniProt P17787+P43681); test: Displacement of [3H]epibatidine from human alpha4beta2 nAChR transfected in HEK293 cell membranes after 120 mins by liquid scintillation counting
T1 sequence (P17787 whole entry): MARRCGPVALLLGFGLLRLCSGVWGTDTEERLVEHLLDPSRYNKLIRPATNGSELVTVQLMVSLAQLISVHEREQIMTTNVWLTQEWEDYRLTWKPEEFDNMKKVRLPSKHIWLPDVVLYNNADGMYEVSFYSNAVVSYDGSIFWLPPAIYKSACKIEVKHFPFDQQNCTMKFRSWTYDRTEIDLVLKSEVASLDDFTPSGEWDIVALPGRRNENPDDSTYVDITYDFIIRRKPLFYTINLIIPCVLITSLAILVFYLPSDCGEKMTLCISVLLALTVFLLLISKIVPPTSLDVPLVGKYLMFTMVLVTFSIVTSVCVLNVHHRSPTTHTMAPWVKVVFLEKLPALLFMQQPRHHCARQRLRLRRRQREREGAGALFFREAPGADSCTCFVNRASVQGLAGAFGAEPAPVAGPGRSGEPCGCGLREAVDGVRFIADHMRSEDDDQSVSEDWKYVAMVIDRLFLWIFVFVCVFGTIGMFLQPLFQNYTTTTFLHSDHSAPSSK
T1 sequence (P43681 whole entry): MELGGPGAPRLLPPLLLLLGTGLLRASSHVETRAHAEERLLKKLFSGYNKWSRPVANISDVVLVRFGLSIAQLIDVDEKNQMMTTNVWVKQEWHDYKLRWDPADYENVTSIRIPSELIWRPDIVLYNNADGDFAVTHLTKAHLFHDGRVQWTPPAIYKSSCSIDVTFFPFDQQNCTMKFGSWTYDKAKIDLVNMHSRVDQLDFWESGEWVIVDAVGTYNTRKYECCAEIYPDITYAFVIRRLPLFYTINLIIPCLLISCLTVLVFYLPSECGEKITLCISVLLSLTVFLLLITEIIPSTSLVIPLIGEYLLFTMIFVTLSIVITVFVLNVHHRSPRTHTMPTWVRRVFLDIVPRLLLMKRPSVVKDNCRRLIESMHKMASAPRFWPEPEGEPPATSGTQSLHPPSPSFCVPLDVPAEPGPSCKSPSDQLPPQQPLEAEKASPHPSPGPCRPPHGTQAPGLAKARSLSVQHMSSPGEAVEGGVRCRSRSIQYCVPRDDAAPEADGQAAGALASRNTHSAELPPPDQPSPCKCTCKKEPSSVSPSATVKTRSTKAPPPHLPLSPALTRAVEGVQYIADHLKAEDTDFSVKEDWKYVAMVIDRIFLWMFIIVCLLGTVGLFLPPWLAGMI

[4] = biological target: Acetylcholine receptor subunit alpha (Homo sapiens) (UniProt P02708); test: Displacement of [125I]alpha-bungarotoxin from human N-muscle type nAChR alpha1 expressed in human RD cells at 1 uM; assay type: cell-based
Chain of Acetylcholine receptor subunit alpha (Homo sapiens) (P02708 whole entry): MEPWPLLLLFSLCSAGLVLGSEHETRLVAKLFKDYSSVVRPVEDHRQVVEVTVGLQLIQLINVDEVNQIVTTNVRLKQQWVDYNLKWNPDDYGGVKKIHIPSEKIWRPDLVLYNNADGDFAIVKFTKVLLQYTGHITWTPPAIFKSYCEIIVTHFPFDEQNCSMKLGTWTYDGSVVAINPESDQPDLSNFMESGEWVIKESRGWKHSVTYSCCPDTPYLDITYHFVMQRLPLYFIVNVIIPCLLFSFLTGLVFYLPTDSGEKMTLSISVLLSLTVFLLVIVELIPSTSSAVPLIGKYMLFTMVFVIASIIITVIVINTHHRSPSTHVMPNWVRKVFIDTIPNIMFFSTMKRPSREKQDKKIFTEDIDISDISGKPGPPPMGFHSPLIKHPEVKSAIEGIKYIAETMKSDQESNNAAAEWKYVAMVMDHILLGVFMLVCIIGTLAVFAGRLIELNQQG

Homo sapiens [5] = organism: Homo sapiens; test: Selectivity index, reciprocal of ratio of Ki for alpha7 nAChR transfected in human SH-SY5Y cells to KI for human alpha4beta2 nAChR transfected in HEK293 cells; assay type: cell-based
[6] = biological target: T2, Neuronal acetylcholine receptor; alpha3/beta4 (Homo sapiens, UniProt P30926+P32297); test: Agonist activity at human alpha3beta4 nAChR expressed in HEK293 cells assessed as increase in intracellular calcium levels at 10 uM; assay type: cell-based
T2 sequence (P30926 whole entry): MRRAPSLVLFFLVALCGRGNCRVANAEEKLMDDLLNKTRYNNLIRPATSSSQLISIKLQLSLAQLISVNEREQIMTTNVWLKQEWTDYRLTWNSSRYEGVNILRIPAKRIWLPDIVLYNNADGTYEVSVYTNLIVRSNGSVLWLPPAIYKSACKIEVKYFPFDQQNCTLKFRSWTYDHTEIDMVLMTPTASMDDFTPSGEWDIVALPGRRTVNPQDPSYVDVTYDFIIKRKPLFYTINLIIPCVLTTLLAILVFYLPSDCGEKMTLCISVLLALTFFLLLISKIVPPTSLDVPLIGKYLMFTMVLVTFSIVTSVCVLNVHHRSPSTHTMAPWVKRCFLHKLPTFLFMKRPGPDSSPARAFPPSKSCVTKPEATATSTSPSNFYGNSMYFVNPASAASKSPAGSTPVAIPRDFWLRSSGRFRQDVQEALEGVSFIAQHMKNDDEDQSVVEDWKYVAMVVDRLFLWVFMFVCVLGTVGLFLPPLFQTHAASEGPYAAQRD
T2 sequence (P32297 whole entry): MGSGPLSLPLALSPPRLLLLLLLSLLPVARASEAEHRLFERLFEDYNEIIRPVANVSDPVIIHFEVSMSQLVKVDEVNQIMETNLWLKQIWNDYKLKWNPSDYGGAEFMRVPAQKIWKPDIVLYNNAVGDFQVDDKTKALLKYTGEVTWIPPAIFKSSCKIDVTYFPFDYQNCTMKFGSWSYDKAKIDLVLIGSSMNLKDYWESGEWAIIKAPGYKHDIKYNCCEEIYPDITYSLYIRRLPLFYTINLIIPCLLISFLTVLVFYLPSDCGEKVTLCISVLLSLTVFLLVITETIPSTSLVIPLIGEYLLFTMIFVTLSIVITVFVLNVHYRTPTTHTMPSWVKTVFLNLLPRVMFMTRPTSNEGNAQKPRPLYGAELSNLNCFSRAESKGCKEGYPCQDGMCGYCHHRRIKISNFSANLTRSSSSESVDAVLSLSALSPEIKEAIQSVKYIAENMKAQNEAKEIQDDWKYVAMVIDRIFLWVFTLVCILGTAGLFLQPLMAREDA

[7] = biological target: T3, Neuronal acetylcholine receptor subunit alpha-7 (Homo sapiens, UniProt P36544); test: Displacement of [3H]MLA from human alpha7 nAChR transfected in human SH-SY5Y cell membranes after 120 mins by liquid scintillation counting
T3 sequence (P36544 whole entry): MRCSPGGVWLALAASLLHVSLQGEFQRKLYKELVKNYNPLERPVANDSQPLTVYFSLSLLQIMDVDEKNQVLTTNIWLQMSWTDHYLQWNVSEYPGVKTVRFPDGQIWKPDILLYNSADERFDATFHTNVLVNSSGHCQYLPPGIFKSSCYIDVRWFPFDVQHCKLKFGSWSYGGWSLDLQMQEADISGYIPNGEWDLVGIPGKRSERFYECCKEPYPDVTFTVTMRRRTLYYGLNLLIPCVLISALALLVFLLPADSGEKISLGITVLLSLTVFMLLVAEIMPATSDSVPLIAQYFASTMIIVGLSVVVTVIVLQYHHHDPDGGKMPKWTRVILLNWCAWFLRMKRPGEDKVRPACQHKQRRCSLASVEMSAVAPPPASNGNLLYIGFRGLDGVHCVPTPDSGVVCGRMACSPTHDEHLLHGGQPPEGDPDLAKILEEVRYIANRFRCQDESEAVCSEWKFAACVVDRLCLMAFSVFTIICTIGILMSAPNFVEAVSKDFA

[8] = biological target: T2, Neuronal acetylcholine receptor; alpha3/beta4; test: Displacement of [3H]epibatidine from human alpha3beta4 nAChR transfected in HEK293 cell membranes after 120 mins by liquid scintillation counting
[9] = biological target: T3, Neuronal acetylcholine receptor subunit alpha-7; test: Agonist activity at human alpha7 nAChR expressed in human SH-SY5Y cells assessed as increase in intracellular calcium levels at 10 uM; assay type: cell-based
Homo sapiens [10] = organism: Homo sapiens; test: Selectivity index, reciprocal of ratio of Ki for human alpha7 nAChR transfected in human SH-SY5Y cells to Ki for human alpha3beta4 nAChR transfected in HEK293 cells; assay type: cell-based
[11] = biological target: T1, Neuronal acetylcholine receptor; alpha4/beta2; test: Binding affinity to alpha4beta2 nAChR (unknown origin); assay type: protein-complex assay
[12] = biological target: T3, Neuronal acetylcholine receptor subunit alpha-7; test: Binding affinity to alpha7 nAChR (unknown origin)
[13] = biological target: T2, Neuronal acetylcholine receptor; alpha3/beta4; test: Antagonist activity at human alpha3beta4 nAChR expressed in HEK293 cells assessed as rediution in epibatidine-induced intracellular calcium levels at 10 uM; assay type: cell-based
[14] = biological target: Neuronal acetylcholine receptor; alpha4/beta2 (Rattus norvegicus, UniProt P09483+P12390); test: Displacement of [3H]cytisine from alpha4beta2 nAChR in Sprague-Dawley rat brain membranes after 75 mins by scintillation counting; assay type: cell membranes
Chain of Neuronal acetylcholine receptor; alpha4/beta2 (Rattus norvegicus, UniProt P09483+P12390) (P09483 whole entry): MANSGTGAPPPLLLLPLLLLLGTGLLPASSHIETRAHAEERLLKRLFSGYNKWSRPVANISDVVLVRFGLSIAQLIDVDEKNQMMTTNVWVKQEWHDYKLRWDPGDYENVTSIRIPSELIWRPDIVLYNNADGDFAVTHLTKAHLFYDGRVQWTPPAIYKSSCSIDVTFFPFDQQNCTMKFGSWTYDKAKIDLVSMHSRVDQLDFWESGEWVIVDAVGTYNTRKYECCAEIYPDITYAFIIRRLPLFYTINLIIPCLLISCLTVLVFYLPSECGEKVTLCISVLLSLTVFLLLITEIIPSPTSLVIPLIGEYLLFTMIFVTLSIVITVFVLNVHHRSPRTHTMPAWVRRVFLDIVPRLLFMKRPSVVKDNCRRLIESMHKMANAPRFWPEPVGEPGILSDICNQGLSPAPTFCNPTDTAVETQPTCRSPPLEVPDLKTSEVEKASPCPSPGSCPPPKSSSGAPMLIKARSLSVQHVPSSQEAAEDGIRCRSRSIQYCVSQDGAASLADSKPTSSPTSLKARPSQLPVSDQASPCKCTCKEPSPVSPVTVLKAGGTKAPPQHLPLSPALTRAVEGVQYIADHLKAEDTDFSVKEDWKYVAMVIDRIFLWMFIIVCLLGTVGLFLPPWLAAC
Chain of Neuronal acetylcholine receptor; alpha4/beta2 (Rattus norvegicus, UniProt P09483+P12390) (P12390 whole entry): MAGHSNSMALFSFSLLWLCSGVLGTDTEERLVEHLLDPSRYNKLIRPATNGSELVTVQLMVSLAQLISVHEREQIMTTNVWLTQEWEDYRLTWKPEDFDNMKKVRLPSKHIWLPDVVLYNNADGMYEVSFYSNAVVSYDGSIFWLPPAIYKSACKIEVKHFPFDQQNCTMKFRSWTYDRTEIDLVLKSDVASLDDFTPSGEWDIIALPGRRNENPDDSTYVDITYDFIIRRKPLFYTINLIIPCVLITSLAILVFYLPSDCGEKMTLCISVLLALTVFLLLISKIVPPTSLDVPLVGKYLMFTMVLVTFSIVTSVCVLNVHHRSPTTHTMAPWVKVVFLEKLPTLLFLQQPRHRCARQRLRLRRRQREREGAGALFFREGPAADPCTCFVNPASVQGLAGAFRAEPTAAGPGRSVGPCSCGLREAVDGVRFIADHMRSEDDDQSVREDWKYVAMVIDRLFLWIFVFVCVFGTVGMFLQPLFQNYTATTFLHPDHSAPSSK

[15] = biological target: T3, Neuronal acetylcholine receptor subunit alpha-7; test: Displacement of [3H]A-585539 from alpha7 nAChR in human cerebral cortex membranes after 75 mins by scintillation counting; assay type: cell membranes
[16] = biological target: Neuronal acetylcholine receptor subunit alpha-7 (Rattus norvegicus, UniProt Q05941); test: Displacement of [3H]MLA from alpha7 nAChR in rat brain membranes after 2 hrs; assay type: cell membranes
Chain of Neuronal acetylcholine receptor subunit alpha-7 (Rattus norvegicus, UniProt Q05941) (Q05941 whole entry): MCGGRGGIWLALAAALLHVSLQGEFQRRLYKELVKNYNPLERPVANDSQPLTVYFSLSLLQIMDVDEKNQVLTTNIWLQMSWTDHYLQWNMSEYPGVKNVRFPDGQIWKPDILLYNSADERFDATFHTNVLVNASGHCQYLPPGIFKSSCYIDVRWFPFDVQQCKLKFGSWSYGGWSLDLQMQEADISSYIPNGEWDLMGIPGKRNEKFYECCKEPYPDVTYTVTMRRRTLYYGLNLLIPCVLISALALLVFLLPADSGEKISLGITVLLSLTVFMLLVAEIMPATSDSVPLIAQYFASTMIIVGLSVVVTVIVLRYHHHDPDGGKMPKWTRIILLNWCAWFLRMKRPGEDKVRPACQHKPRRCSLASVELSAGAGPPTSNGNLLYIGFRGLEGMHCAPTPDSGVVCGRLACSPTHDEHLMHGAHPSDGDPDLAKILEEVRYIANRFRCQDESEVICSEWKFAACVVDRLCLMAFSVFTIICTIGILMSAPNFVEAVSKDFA

[17] = biological target: T3, Neuronal acetylcholine receptor subunit alpha-7; test: Displacement of [3H]MLA from human recombinant alpha7 nAChR expressed in HEKtsA201 cells after 1 hr by CNiFERs binding assay; assay type: cell-based
[18] = biological target: T1, Neuronal acetylcholine receptor; alpha4/beta2; test: Displacement of [3H]-(+/-)-epibatidine from human recombinant alpha4beta2 nAChR expressed in HEKtsA201 cells after 1 hr by CNiFERs binding assay; assay type: cell-based
[19] = biological target: T1, Neuronal acetylcholine receptor; alpha4/beta2; test: Displacement of [3H] epibatidine from alpha4beta2 nAChR (unknown origin) expressed in HEK293 cells; assay type: cell-based
[20] = biological target: T2, Neuronal acetylcholine receptor; alpha3/beta4; test: Displacement of [3H] epibatidine from alpha3beta4 nAChR (unknown origin) expressed in HEK293 cells; assay type: cell-based
[21] = biological target: T3, Neuronal acetylcholine receptor subunit alpha-7; test: Displacement of [3H] epibatidine from alpha7 nAChR (unknown origin) expressed in HEK293 cells; assay type: cell-based

Structure (SMILES) | Ratio (Homo sapiens [1]) | Ki [3] [nM] | Ratio (Homo sapiens [5]) | Ki [7] [nM] | Ki [8] [nM] | further results
Fc1ccc(-c2cn([C@@H]3CN4CCC3CC4)nn2)cc1 | 167 | 515 | 3 | 175 | 3.09 | inhibition [2]: inactive; inhibition [4]: 2 to 12%; Activity [6]: Active; Activity [9]: Active
FCCOc1cccc(-c2cn([C@@H]3CN4CCC3CC4)nn2)c1 | 107 | 1260 | 17 | 74.9 | 11.8 | 
Oc1ccc(-c2cn([C@@H]3CN4CCC3CC4)nn2)cc1 | 186 | 461 | 16 | 29.3 | 2.48 | 
Fc1ccc(COc2cccc(-c3cn([C@H]4CN5CCC4CC5)nn3)c2)cc1 | 5.9 | 6390 | 193 | 33.2 | 1090 | Ratio (Homo sapiens [10]): 33
FCCCOc1cccc(-c2cn([C@H]3CN4CCC3CC4)nn2)c1 | 5.5 | 9010 | 145 | 62.3 | 1630 | Ratio (Homo sapiens [10]): 26
Fc1ccc(-c2cn(C3CN4CCC3CC4)nn2)cc1 (racemic) | 53 | 449 | 6.2 | 72.8 | 8.5 | 
FCCCOc1cccc(-c2cn([C@@H]3CN4CCC3CC4)nn2)c1 | 102 | 1980 | 20 | 96.9 | 19.5 | 
FCCOc1cccc(-c2cn(C3CN4CCC3CC4)nn2)c1 (racemic) | 94 | 1960 | 20 | 98.7 | 20.9 | 
Fc1ccc(COc2cccc(-c3cn(C4CN5CCC4CC5)nn3)c2)cc1 (racemic) | 73 | 1010 | 8 | 127 | 13.9 | 
CN1C2CCCC1CC(Nc1ccccc1Br)C2 (configuration not stated) |  |  |  |  |  | Ki [11]: 476 nM; Ki [12]: 221 nM
Fc1cccc(-c2cn([C@@H]3CN4CCC3CC4)nn2)c1 | 231 | 519 |  | 660 | 2.25 | inhibition [2]: inactive; inhibition [13]: Active; inhibition [4]: 2 to 12%; Activity [9]: Active
Oc1ccc(-c2cn([C@H]3CN4CCC3CC4)nn2)cc1 | 54 | 7390 | 678 | 10.9 | 138 | Ratio (Homo sapiens [10]): 12.7
c1cc2cc(-c3ccc(O[C@H]4CN5CCC4CC5)nn3)ccc2[nH]1 [ABT-107] |  |  |  |  |  | Ki [14]: 4000 nM; Ki [15]: 0.22 nM
O=C(N[C@H]1CN2CCC1CC2)c1c[nH]c2ccccc12 |  |  |  |  |  | Ki [16]: 6 nM
c1ccc(COc2cccc(-c3cn([C@@H]4CN5CCC4CC5)nn3)c2)cc1 | 62 | 414 | 1.5 | 279 | 6.67 | inhibition [2]: inactive; inhibition [4]: 2 to 12%
Fc1ccc(-c2cn([C@H]3CN4CCC3CC4)nn2)cc1 | 10 | 10400 | 143 | 73 | 1010 | inhibition [13]: Active; Ratio (Homo sapiens [10]): 14; Activity [9]: Active
c1ccc(COc2cccc(-c3cn([C@H]4CN5CCC4CC5)nn3)c2)cc1 | 8 | 5060 | 225 | 22.5 | 631 | Ratio (Homo sapiens [10]): 28
FCCCOc1cccc(-c2cn(C3CN4CCC3CC4)nn2)c1 (racemic) | 88 | 3890 | 52 | 74.6 | 44.4 | 
Fc1ccc(COc2cccc(-c3cn([C@@H]4CN5CCC4CC5)nn3)c2)cc1 | 75 | 537 | 3.6 | 149 | 7.17 | inhibition [2]: Active; inhibition [4]: 2 to 12%
Oc1ccc(-c2cn(C3CN4CCC3CC4)nn2)cc1 (racemic) | 182 | 627 | 65 | 9.61 | 3.44 | Ki [17]: 81 nM; Ki [18]: > 10000 nM
FC(F)(F)c1ccc2c(c1)[C@@H]1CNC[C@H]2C1 |  |  |  |  |  | Ki [19]: 21 nM; Ki [20]: 21 nM; Ki [21]: > 300 nM
Fc1cccc(-c2cn([C@H]3CN4CCC3CC4)nn2)c1 | 14 | 5200 | 44 | 117 | 362 | Ratio (Homo sapiens [10]): 3.1; Activity [6]: Active; Activity [9]: Active
FCCOc1cccc(-c2cn([C@H]3CN4CCC3CC4)nn2)c1 | 13 | 7050 | 182 | 38.8 | 558 | Ratio (Homo sapiens [10]): 14
c1ccc(COc2cccc(-c3cn(C4CN5CCC4CC5)nn3)c2)cc1 (racemic) | 88 | 668 | 7.3 | 91.3 | 7.57 | 
Fc1cccc(-c2cn(C3CN4CCC3CC4)nn2)c1 (racemic) | 143 | 748 | 5.6 | 133 | 5.24 | 
